Results published in ChEMBL document CHEMBL5338709, “Design, synthesis, and structure-activity relationship of TAK-418 and its derivatives as a novel series of LSD1 inhibitors with lowered risk of hematological side effects” (Eur J Med Chem, 2022).

Legend:
[1] = Metabolic stability in mouse liver microsomes assessed as clearance at 1 uM incubated for 15 to 30 mins in presence of NADPH generating system by LC-MS/MS analysis; type: ADME, Microsome; conditions: time 15-30 min, read-out: CLH
GFI1 mRNA = test: Hematological toxicity in human TF-1a cells assessed as fold increase in GFI1 mRNA expression at 10 uM incubated for 1 day by RT-qPCR analysis relative to control; type: cell-based; conditions: read-out: FC
LSD1/CoREST complex = LSD1/CoREST complex (Homo sapiens, UniProt O60341); test: Inhibition of recombinant human LSD1 (172 to 852 residues)/His-tagged human CoREST (286 to 482 residues) expressed in Escherichia coli BL21 (DE3) cells using ART(mK)QTARKSTGGKAPRKQLAGGK-Biotin as substrate assessed as increase in H3K4 methylation incubated for 40 mins
[2] = AUC (0 to 24 hrs) in ICR mouse at 10 mg/kg, po; type: ADME, organism-based; design: dose 10 mg/kg, route po; conditions: in vivo
Mus musculus [3] = test: Improvement of recognition memory in NR1 hypofunction mouse assessed as novelty discrimination index at 0.3 mg/kg, po administered once daily for 2 weeks by novel object recognition test (reference value: 51.4 +/- 3.1%); type: functional
Mus musculus [4] = test: Improvement of recognition memory in NR1 hypofunction mouse assessed as novelty discrimination index at 1 mg/kg, po administered once daily for 2 weeks by novel object recognition test (reference value: 51.4 +/- 3.1%); type: functional
[5] = biological target: Lysine-specific histone demethylase 1A (Homo sapiens, UniProt O60341); test: Inhibition of LSD1 (unknown origin)
[6] = Toxicity in ICR mouse assessed as reduction in platelet count upto 100 mg/kg/day, po administered for 4 days; type: organism-based; conditions: in vivo, 96 h, time 4 day
[7] = Toxicity in ICR mouse assessed as reduction in white blood cell count upto 100 mg/kg/day, po administered for 4 days; type: organism-based; conditions: in vivo, 96 h, time 4 day
[8] = Toxicity in ICR mouse assessed as reduction in red blood cell count upto 100 mg/kg/day, po administered for 4 days; type: organism-based; conditions: in vivo, 96 h, time 4 day

microsomal CLint at 1 µM [1] | Compound | fold induction at 24 h, 10 µM (GFI1 mRNA) | IC50 (LSD1/CoREST complex) | further results
13 µL/min/mg | O=C(NC1CCOCC1)c1csc([C@@H]2C[C@H]2NCC2CC2)c1 (racemic) | – | – | –
47 µL/min/mg | O=C(Nc1cccnc1)c1cccc([C@@H]2C[C@H]2NCC2CC2)c1 (racemic) | 1.53 | 160 nM | –
– | O=C(NC1CCOCC1)c1csc([C@@H]2C[C@H]2NCC2CC2)c1 | – | – | AUC(0-t) [2]: 1050 ng·h/mL; Activity (Mus musculus [3]): 62.7%; Activity (Mus musculus [4]): 66%
26 µL/min/mg | Cc1nnc(NC(=O)c2csc([C@@H]3C[C@H]3NCC3CC3)c2)s1 (racemic) | – | – | –
11 µL/min/mg | O=C(NC1CCOCC1)c1cccc([C@@H]2C[C@H]2NCC2CC2)c1 (racemic) | – | – | –
– | O=C(Nc1cccc([C@@H]2C[C@H]2NCC2CC2)c1)c1ccccc1 (racemic) | 3.51 | 1800 nM | –
101 µL/min/mg | O=C(Nc1ccccc1)c1cccc([C@@H]2C[C@H]2NCC2CC2)c1 (racemic) | 1.97 | 82 nM | –
– | O=C(Nc1ccccc1)c1ccc([C@@H]2C[C@H]2NCC2CC2)cc1 (racemic) | 10.6 | – | IC50 [5]: 1 nM
– | O=C(Nc1ccccc1)c1ccccc1[C@@H]1C[C@H]1NCC1CC1 (racemic) | – | > 10000 nM | –
26 µL/min/mg | O=C(NC1CCC(F)(F)CC1)c1cccc([C@@H]2C[C@H]2NCC2CC2)c1 (racemic) | – | – | –
– | Cc1nnc(NC(=O)c2cccc([C@@H]3C[C@H]3NCC3CC3)c2)s1 | – | – | Activity [6]: Non-Toxic; Activity [7]: Non-Toxic; Activity [8]: Non-Toxic
15 µL/min/mg | Cc1nnc(NC(=O)c2cc([C@@H]3C[C@H]3NCC3CC3)cs2)s1 (racemic) | – | – | –
10 µL/min/mg | Cc1nnc(NC(=O)c2cccc([C@@H]3C[C@H]3NCC3CC3)c2)s1 (racemic) | – | – | –
– | CN(C(=O)c1cccc([C@@H]2C[C@H]2NCC2CC2)c1)c1ccccc1 (racemic) | 9.6 | 860 nM | –
– | O=C(Nc1ccc([C@@H]2C[C@H]2NCC2CC2)cc1)c1ccccc1 (racemic) | 10.7 | – | IC50 [5]: 1.4 nM
